The experiment deals with formalin-induced behavioral response. Kind of experiment: formalin-induced behavioral response model (flinching/shaking, licking/biting; phase I and phase II).
The mark [1] stands for this setting: dose 3 mg/kg subcutaneously two hours prior to formalin administration.

On to `CC(C)Oc1ccc2c(c1)CCc1c-2c2c(c3c1[nH]c1ccc(F)cc13)CNC2=O` [VIII], for which the “% Inhibition of Phase II” value (dose 1 mg/kg subcutaneously two hours prior to formalin administration) came to 29 ± 4%.

With `CCOCc1ccc2c(c1)c1c3c(c4c(c1n2CCCO)Cc1ccccc1-4)C(=O)NC3` [XV], the “% Inhibition of Phase II” value (dose 10 mg/kg subcutaneously two hours prior to formalin administration) worked out at 19 ± 3%.

Regarding `COc1ccc2c(c1)Cc1c-2c2c(c3c4ccccc4n(CCO)c13)CNC2=O` [XVI], the “% Inhibition of Phase II” value under setting [1] is reported as 22 ± 6%.

As for `C[C@]1(O)C[C@H]2O[C@]1(C)n1c3ccccc3c3c4c(c5c6ccccc6n2c5c31)C(=O)NC4` [XIII], under setting [1], the “% Inhibition of Phase II” value is listed as 29 ± 5%.

Regarding `CC(C)Oc1ccc2c(c1)CCc1c-2c2c(c3c4ccccc4n(CCO)c13)CNC2=O` [IX], under setting [1], the “% Inhibition of Phase II” value is on record as 37 ± 3%.

For `O=C1NCc2c1c1c3c4c2c2ccccc2n4C2CC[C@H](O2)C3c2ccccc2-1` (stereo partly drawn) [XIV], under setting [1], the “% Inhibition of Phase II” value is listed as 34 ± 3%.

Values taken from patent US7018999B2, “Methods for the treatment and prevention of pain” (Cephalon, Inc., priority 2001, dated 2006).
